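Results reflect a 48-hour exposure of cells in 96-well plates to compound at five concentrations. GI50 marks 50% less growth. Definition used: TGI = concentration required for complete inhibition of growth.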
How the values were obtained:
Assay in all cases: DTP human tumour cell line panel, 48 h; in the data active = GI50 below about 0.43 µM; inactive = the rest
[1] = test system: 786-0 renal
[2] = test system: A498 renal
[3] = test system: A549 NSCLC
[4] = test system: ACHN renal
[5] = test system: BT-549 breast
[6] = test system: CCRF-CEM leukemia
[7] = test system: COLO 205 colon
[8] = test system: DU-145 prostate
[9] = test system: EKVX NSCLC
[10] = test system: HCC-2998 colon
[11] = test system: HCT-116 colon
[12] = test system: HCT-15 colon
[13] = test system: HL-60(TB) leukemia
[14] = test system: HOP-62 NSCLC
[15] = test system: HOP-92 NSCLC
[16] = test system: HS 578T breast
[17] = test system: HT29 colon
[18] = test system: IGROV1 ovarian
[19] = test system: K-562 leukemia
[20] = test system: KM12 colon
[21] = test system: LOX IMVI melanoma
[22] = test system: M14 melanoma
[23] = test system: MALME-3M melanoma
[24] = test system: MCF7 breast
[25] = test system: MDA-MB-231 breast
[26] = test system: MDA-MB-435
[27] = test system: MOLT-4 leukemia
[28] = test system: NCI-H23 lung
[29] = test system: NCI-H460 lung
[30] = test system: NCI-H522 lung
[31] = test system: NCI/ADR-RES ovarian
[32] = test system: OVCAR-3 ovarian
[33] = test system: OVCAR-4 ovarian
[34] = test system: OVCAR-5 ovarian
[35] = test system: OVCAR-8 ovarian
[36] = test system: PC-3 prostate
[37] = test system: RPMI-8226 leukemia
[38] = test system: RXF 393 renal
[39] = test system: SF-268 CNS
[40] = test system: SF-295 CNS
[41] = test system: SF-539 CNS
[42] = test system: SK-MEL-2 melanoma
[43] = test system: SK-MEL-28 melanoma
[44] = test system: SK-MEL-5 melanoma
[45] = test system: SK-OV-3 ovarian
[46] = test system: SN12C renal
[47] = test system: SNB-19 CNS
[48] = test system: SNB-75 CNS
[49] = test system: SW-620 colon
[50] = test system: T-47D breast
[51] = test system: TK-10 renal
[52] = test system: U251 CNS
[53] = test system: UACC-257 melanoma
[54] = test system: UACC-62 melanoma
[55] = test system: CAKI-1 renal
[56] = test system: NCI-H226 lung
[57] = test system: SR leukemia
[58] = test system: UO-31 renal

COc1ccc(OC)c(/C=C/c2nc(=S)n(-c3ccc(Cl)cc3)[nH]2)c1
68.4 µM: TGI [7]
97.9 µM: TGI [41]
> 100 µM: TGI [1] | TGI [2] | TGI [3] | TGI [4] | TGI [5] | TGI [6] | TGI [8] | TGI [9] | TGI [10] | TGI [11] | TGI [12] | TGI [13] | TGI [14] | TGI [15] | TGI [16] | TGI [17] | TGI [18] | TGI [19] | TGI [20] | TGI [21] | TGI [22] | TGI [23] | TGI [24] | TGI [25] | TGI [26] | TGI [27] | TGI [28] | TGI [29] | TGI [30] | TGI [31] | TGI [33] | TGI [34] | TGI [35] | TGI [36] | TGI [37] | TGI [39] | TGI [40] | TGI [42] | TGI [43] | TGI [44] | TGI [45] | TGI [46] | TGI [47] | TGI [48] | TGI [49] | TGI [50] | TGI [51] | TGI [52] | TGI [53] | TGI [54]
21.4 µM: TGI [32]
38.7 µM: TGI [38]
inactive: GI50 [1] 7.17 µM | GI50 [2] 6.66 µM | GI50 [3] 9.07 µM | GI50 [4] 23.8 µM | GI50 [5] 9.38 µM | GI50 [6] 4.77 µM | GI50 [7] 12.4 µM | GI50 [8] 19.1 µM | GI50 [9] 30 µM | GI50 [10] 13.3 µM | GI50 [11] 4.05 µM | GI50 [12] 4.39 µM | GI50 [13] 3.57 µM | GI50 [14] 6.48 µM | GI50 [15] 3.56 µM | GI50 [16] 3.1 µM | GI50 [17] 3.67 µM | GI50 [18] 4.38 µM | GI50 [19] 4.95 µM | GI50 [20] 4.03 µM | GI50 [21] 5.02 µM | GI50 [22] 4.24 µM | GI50 [23] 70.6 µM | GI50 [24] 4.44 µM | GI50 [25] 14.5 µM | GI50 [26] 2.83 µM | GI50 [27] 7.74 µM | GI50 [28] 5.88 µM | GI50 [29] 4.53 µM | GI50 [30] 4.07 µM | GI50 [31] 3.63 µM | GI50 [32] 3.34 µM | GI50 [33] 20.6 µM | GI50 [34] 70.3 µM | GI50 [35] 28.4 µM | GI50 [36] 8.91 µM | GI50 [37] 5.22 µM | GI50 [38] 3.38 µM | GI50 [39] 17.5 µM | GI50 [40] 4.16 µM | GI50 [41] 4.05 µM | GI50 [42] 4.05 µM | GI50 [43] 11.1 µM | GI50 [44] 3.58 µM | GI50 [45] 9.4 µM | GI50 [46] 6.07 µM | GI50 [47] 12.7 µM | GI50 [48] 2.85 µM | GI50 [49] 5.09 µM | GI50 [50] 4.51 µM | GI50 [51] 25.8 µM | GI50 [52] 6.88 µM | GI50 [53] > 100 µM | GI50 [54] 3.11 µM

CC1(C)OC[C@@H]([C@@]2(CO[Si](c3ccccc3)(c3ccccc3)C(C)(C)C)CC=CC(=O)O2)O1
58.6 µM: TGI [12]
32.8 µM: TGI [1]
71.9 µM: TGI [37]
31.2 µM: TGI [26]
21 µM: TGI [21]
84.5 µM: TGI [54]
35.1 µM: TGI [31]
49.6 µM: TGI [34]
33 µM: TGI [51]
97.5 µM: TGI [47]
34.2 µM: TGI [2]
80.2 µM: TGI [18]
9.82 µM: TGI [41]
56.3 µM: TGI [20]
37.8 µM: TGI [9]
25.9 µM: TGI [40]
36.6 µM: TGI [4]
inactive: GI50 [1] 8.96 µM | GI50 [2] 17.1 µM | GI50 [3] 5.27 µM | GI50 [4] 11.4 µM | GI50 [5] 4.46 µM | GI50 [55] 25.9 µM | GI50 [6] 6.63 µM | GI50 [7] 8.69 µM | GI50 [8] 12.7 µM | GI50 [9] 12.1 µM | GI50 [10] 13.7 µM | GI50 [11] 4.86 µM | GI50 [12] 5.86 µM | GI50 [14] 31.5 µM | GI50 [15] 6.72 µM | GI50 [16] 9.01 µM | GI50 [17] 7.97 µM | GI50 [18] 5.42 µM | GI50 [19] 3.91 µM | GI50 [20] 4.99 µM | GI50 [21] 3.93 µM | GI50 [22] 8.52 µM | GI50 [23] 2.42 µM | GI50 [24] 4.83 µM | GI50 [25] 20.6 µM | GI50 [26] 4.98 µM | GI50 [27] 8.94 µM | GI50 [56] 5.54 µM | GI50 [28] 10.2 µM | GI50 [29] 5.16 µM | GI50 [30] 5.02 µM | GI50 [31] 5.64 µM | GI50 [32] 4.3 µM | GI50 [33] 16.1 µM | GI50 [34] 16.7 µM | GI50 [35] 5.05 µM | GI50 [36] 5.92 µM | GI50 [37] 3.55 µM | GI50 [38] 9.82 µM | GI50 [39] 10.5 µM | GI50 [40] 5.43 µM | GI50 [41] 3.68 µM | GI50 [42] 6.23 µM | GI50 [43] 16.7 µM | GI50 [44] 4.65 µM | GI50 [45] 33 µM | GI50 [46] 5.39 µM | GI50 [47] 15.5 µM | GI50 [57] 4.1 µM | GI50 [49] 4.55 µM | GI50 [50] 8.03 µM | GI50 [51] 11.7 µM | GI50 [52] 5.94 µM | GI50 [53] 3.3 µM | GI50 [54] 5.79 µM | GI50 [58] 12.2 µM
40.2 µM: TGI [28]
> 100 µM: TGI [3] | TGI [55] | TGI [6] | TGI [7] | TGI [8] | TGI [11] | TGI [16] | TGI [17] | TGI [19] | TGI [24] | TGI [25] | TGI [27] | TGI [29] | TGI [30] | TGI [32] | TGI [33] | TGI [35] | TGI [36] | TGI [38] | TGI [42] | TGI [45] | TGI [50] | TGI [58]
60.5 µM: TGI [22]
8.48 µM: TGI [23]
46.7 µM: TGI [49]
25.4 µM: TGI [52]
19.4 µM: TGI [44]
19 µM: TGI [5]
16.6 µM: TGI [57]
48.3 µM: TGI [43]
60.9 µM: TGI [14]
26.2 µM: TGI [15]
35.9 µM: TGI [46]
24.1 µM: TGI [56]
45.8 µM: TGI [39]
28.9 µM: TGI [10]
9.95 µM: TGI [53]

From PubChem BioAssay (NCI)
